In ChEMBL document CHEMBL1146018, “The design and synthesis of a tricyclic single-nitrogen scaffold that serves as a 5-HT2C receptor agonist” (Bioorg Med Chem Lett, 2006):
Calls of active or inactive are those of the source. The calls are words filed in the database; no cut-off is given here.

Legend:
[1] = target: T1, 5-hydroxytryptamine receptor 2C (Homo sapiens, UniProt P28335); assay: Binding affinity to 5HT2C
T1 sequence (P28335 whole entry): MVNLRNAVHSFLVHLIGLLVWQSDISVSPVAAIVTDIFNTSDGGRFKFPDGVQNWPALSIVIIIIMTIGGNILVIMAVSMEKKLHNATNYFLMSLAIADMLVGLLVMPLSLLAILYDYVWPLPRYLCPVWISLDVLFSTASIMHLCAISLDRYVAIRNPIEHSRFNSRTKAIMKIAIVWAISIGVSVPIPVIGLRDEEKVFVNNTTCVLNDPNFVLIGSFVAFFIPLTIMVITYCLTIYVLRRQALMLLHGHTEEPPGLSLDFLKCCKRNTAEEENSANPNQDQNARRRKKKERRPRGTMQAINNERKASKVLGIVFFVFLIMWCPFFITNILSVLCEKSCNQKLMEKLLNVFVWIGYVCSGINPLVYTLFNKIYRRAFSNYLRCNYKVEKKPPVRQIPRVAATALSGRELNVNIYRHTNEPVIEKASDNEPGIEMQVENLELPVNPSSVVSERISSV

[2] = target: Serotonin 2 receptors; 5-HT2a & 5-HT2c (Homo sapiens) (UniProt P28223+P28335); assay: Selectivity for 5HT2C over 5HT2A; format: protein assay
Chain of Serotonin 2 receptors; 5-HT2a & 5-HT2c (Homo sapiens) (P28223 whole entry, looked up, one chain of several): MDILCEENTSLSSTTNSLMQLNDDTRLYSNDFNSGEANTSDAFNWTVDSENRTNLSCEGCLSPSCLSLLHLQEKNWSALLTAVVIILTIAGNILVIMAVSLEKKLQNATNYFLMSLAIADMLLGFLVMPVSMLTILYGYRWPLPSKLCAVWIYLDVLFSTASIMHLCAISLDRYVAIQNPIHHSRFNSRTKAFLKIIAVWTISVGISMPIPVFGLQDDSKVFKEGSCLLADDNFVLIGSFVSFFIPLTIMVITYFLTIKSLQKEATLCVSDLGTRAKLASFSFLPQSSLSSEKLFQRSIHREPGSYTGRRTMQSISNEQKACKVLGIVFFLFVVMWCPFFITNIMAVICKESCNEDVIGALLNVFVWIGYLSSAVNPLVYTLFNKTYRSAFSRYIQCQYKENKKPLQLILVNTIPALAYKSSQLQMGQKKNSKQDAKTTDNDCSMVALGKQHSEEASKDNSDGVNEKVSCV

[3] = target: T1, 5-hydroxytryptamine receptor 2C; assay: […] of 5HT2C assessed as intracellular calcium concentration; format: functional, cell-based
[4] = target: Serotonin receptor (2b and 2c) (Homo sapiens) (UniProt P41595+P28335); assay: Selectivity for 5HT2C over 5HT2B; format: protein assay
[5] = Half life in dog at 1.0 mg/kg, iv; format: ADME, organism-based, Canis lupus familiaris; design: dose 1 mg/kg, route intravenous; conditions: in vivo
[6] = Half life in rat at 1.2 mg/kg, iv; format: ADME, organism-based; design: dose 1.2 mg/kg, route intravenous; conditions: in vivo
Rattus norvegicus [7] = assay: Reduction of food intake in rat at 20 mg/kg, ip after 24 hrs; format: functional, organism-based; design: dose 20 mg/kg
[8] = Oral bioavailability in dog at 10.6 mg/kg, po; format: ADME, organism-based, Canis lupus familiaris; conditions: in vivo
[9] = Oral bioavailability in rat at 10.6 mg/kg, po; format: ADME, organism-based; conditions: in vivo
[10] = Clearance in rat at 1.2 mg/kg, iv; format: ADME, organism-based; design: dose 1.2 mg/kg, route intravenous; conditions: in vivo
Rattus norvegicus [11] = assay: Reduction of food intake in rat at 10 mg/kg, ip after 4 hrs; format: functional, organism-based; design: dose 10 mg/kg
[12] = Ratio of drug level in brain against plasma measured as AUC cortex/AUC plasma at 1.2 mg/kg, iv; format: ADME, organism-based; design: dose 1.2 mg/kg, route intravenous; conditions: rat, read-out: BPR
Rattus norvegicus [13] = assay: Reduction of food intake in ip dosed rat; format: functional, organism-based
[14] = Clearance in dog at 1.0 mg/kg, iv; format: ADME, organism-based, Canis lupus familiaris; design: dose 1 mg/kg, route intravenous; conditions: in vivo

| SMILES | Ki [1] | Selectivity ratio [2] | Selectivity ratio [4] | further results |
| --- | --- | --- | --- | --- |
| Cc1cc2c(cc1Cl)[C@H]1CNC[C@H]1C2C (mixture of isomers) | 465 nM |  |  |  |
| Clc1ccc2c(c1)C[C@@H]1CNC[C@H]21 |  | 14 | 19 | EC50 [3]: 11 nM |
| CC1c2cc(Cl)c(Cl)cc2[C@H]2CNC[C@@H]12 (mixture of isomers) | 103 nM |  |  |  |
| COc1cc2c(cc1Cl)[C@H](C)[C@@H]1CNC[C@H]21 | 14 nM | 73 | 235 | half-life [5]: 3.5 h; half-life [6]: 1.8 h; Activity (Rattus norvegicus [7]): Active; bioavailability [8]: 80%; bioavailability [9]: 40%; clearance [10]: 31 mL/min/kg; Activity (Rattus norvegicus [11]): Active; Kp [12]: 15; Activity (Rattus norvegicus [13]): Dose-dependent effect; clearance [14]: 39 mL/min/kg; EC50 [3]: 6 nM |
| COc1cc2c(cc1Cl)C(C)[C@@H]1CNC[C@H]21 (mixture of isomers) | 530 nM |  |  |  |
| Cc1cc2c(cc1Cl)C(C)[C@@H]1CNC[C@H]21 (mixture of isomers) | 107 nM |  |  |  |
| C[C@H]1c2cc(Cl)ccc2[C@H]2CNC[C@H]21 | 911 nM | 56 | 132 | EC50 [3]: 54 nM |
| Cc1cc2c(cc1Cl)[C@H]1CNC[C@H]1[C@H]2C | 134 nM | 11 | 14 |  |
| C[C@H]1c2c(ccc(Cl)c2Cl)[C@H]2CNC[C@H]21 | 5 nM | 50 | 73 |  |
| Cc1ccc2c(c1)C(C)[C@@H]1CNC[C@H]21 (mixture of isomers) | 1700 nM |  |  |  |
| CCOc1cc2c(cc1Cl)[C@H](C)[C@@H]1CNC[C@H]21 | 231 nM | 9 | 31 |  |
| Cc1cc2c(cc1Br)[C@H]1CNC[C@H]1C2C (mixture of isomers) | 207 nM |  |  |  |
| C[C@H]1c2cc(Cl)c(Cl)cc2[C@H]2CNC[C@H]21 | 155 nM | 8 | 32 |  |
| Cc1cccc2c1C(C)[C@@H]1CNC[C@H]21 (mixture of isomers) | 3380 nM |  |  |  |
| COc1cc2c(cc1Br)[C@H](C)[C@@H]1CNC[C@H]21 | 27 nM | 12 | 81 |  |
| Cc1cc2c(cc1Cl)[C@H](C)[C@@H]1CNC[C@H]21 | 155 nM | 8 | 32 |  |
| Cc1cccc2c1[C@H]1CNC[C@H]1C2C (mixture of isomers) | 1850 nM |  |  |  |
| C[C@H]1c2cc(Cl)c(O)cc2[C@H]2CNC[C@H]21 | 27 nM | 27 | 63 |  |
| Cc1cc2c(cc1Br)C(C)[C@@H]1CNC[C@H]21 (mixture of isomers) | 463 nM |  |  |  |
| Cc1ccc2c(c1)[C@H]1CNC[C@H]1C2C (mixture of isomers) | 3310 nM |  |  |  |
| C[C@@H]1c2cc(Cl)c(Cl)cc2[C@H]2CNC[C@@H]12 | 1140 nM | 2 | 3 |  |
| CC1c2cc(F)ccc2[C@H]2CNC[C@@H]12 (mixture of isomers) | > 10000 nM |  |  |  |
| CC1c2ccc(F)cc2[C@H]2CNC[C@@H]12 (mixture of isomers) | 3010 nM |  |  |  |
